Data on six molecules can be found in patent US8962637B2, “Bicyclic compounds and their uses as dual c-SRC/JAK inhibitors” (Debiopharm S.A., priority 2010, dated 2015).

The subject of data set [1] is A549 cells. The data set is described as follows: Cell viability assay (XTT assay), A549. The data set is classed as cell-based. The following applies: Homo sapiens, 72 hrs. As to the method: Next day compounds were added to cells and incubated for 72 hrs. Compound treatment was done in triplicates. After 72 hrs cell culture media was aspirated from the wells and XTT working solution was added and plates were incubated for 2-5 hrs. […] EC50 values were calculated using Graphpad Prism. Tumor cell lines used in the examples of the present invention were procured from ATCC. Description of the cell lines is included in the following table: […]

In data set [2] the target is JAK2 (Homo sapiens (Human), UniProt O60674). The data set is described as follows: TR-FRET JAK2 kinase assay. The settings on record: ATP 10 μM; for inhibition at 0.1 µM: read-out: JAK2 % inhibition at 100 nM, 100 nM; for inhibition at 1 µM: read-out: JAK2 % inhibition at 1 μM. The data set is classed as biochemical. As to the method:
(§1) Compounds were screened in the TR-FRET assay for JAK2 and c-Src kinase inhibition. Ultra light poly GT (Perkin Elmer) was used as the substrate for JAK2 and c-Src with the ATP concentration of 10 μM and 50 μM, respectively. […] The dose-response curve fitting was done using GraphPad Prism software.

Data set [3] concerns Mda-Mb-231 cells. The data set is described as follows: Cell viability assay (XTT assay), Mda-Mb-231. The data set is classed as cell-based. The following applies: Homo sapiens, 72 hrs. In outline: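 MDA-MB-231 cells seeded and dosed next day in triplicate, incubated 72 h. Medium replaced with XTT working solution for 2-5 h, absorbance read at 465 nm, and EC50 values derived from the readings.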

Data set [4] concerns the target JAK1 (Homo sapiens (Human), UniProt P23458). The data set is described as follows: JAK1 kinase inhibition. The data set is classed as biochemical. The following applies: for inhibition at 0.1 µM: read-out: JAK1 % inhibition at 100 nM; for inhibition at 1 µM: read-out: JAK1 % inhibition at 1 μM.
The test system of data set [5] is pStat3. Put plainly: In-Cell-Western blot assay for pStat3 (ICW) in A431 cells. The settings on record: Homo sapiens, A-431, 2 hrs, read-out: pSTAT3 inhibition. The data set is classed as cell-based. In outline:
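Serum-starved (overnight) A431 cells treated with compound for 2 hrs, then fixed, permeabilized and probed with phospho-Stat3 antibody plus europium-labelled secondary. Europium signal normalized to Hoechst for cell number; IC50 calculated from normalized values.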

A short description of data set [6]: Volume distribution. The following applies: in vivo. The text has this:
Table 8 provides some volume distribution values of the compounds of the present invention.

The target of data set [7] is c-Src (Homo sapiens (Human), UniProt P12931). Put plainly: TR-FRET c-Src kinase assay. Format: biochemical. The settings on record: ATP 50 μM; for inhibition at 0.1 µM: read-out: c-SRC % inhibition at 100 nM, 100 nM; for inhibition at 1 µM: read-out: c-SRC % inhibition at 1 μM. As for the experimental part:
as §1

Data set [8] concerns A431 cancer cell line. The data set is described as follows: Inhibition of cell growth in A431. The data set is classed as cell-based. The settings on record: Homo sapiens, A-431.
Data set [9] has as its system A431 tumor cells. Put plainly: A431 xenograft model. Format: in vivo, athymic nude mice. The settings on record: A431 Xenograft model, 100 MPK. As for the experimental part:
SC injection of 5×10^6 A431 tumor cells with Matrigel® on the left flank of 24 female athymic nude mice. Randomization of mice 14 days after tumor cell injection into 3 groups of 8 mice each with a mean tumor volume of 90±1 mm3.
(§2) Formulation: 20% HPC, 2% ethanol solution in PBS for the compound No. 45
• Normal saline for Gefitinib® Dosing route: Oral for the compound No. 45 and Gefitinib® Dose Volume: 10 mL/Kg body weight Dosing schedule: Once daily for 14 consecutive days (Q1Dx14) PK-PD experiment in A431 model: Tumors were allowed to grow to 250 mm^3 size. Compounds were dosed once and PBMCs and tumors were collected at Tmax for pStat3 estimation. Plasma was also collected to estimate drug concentration estimation. Efficacy experiment in A431 model: Dosage: • Group1. Vehicle control • Group2. Compound No. 45—150 MPK • Group3. […] Plasma collected for drug concentration estimation and whole blood was collected to isolate PBMCs to determine pStat3 inhibition by flow cytometry as PD readout. Tumors were snap frozen in liquid nitrogen and stored at −80° C. to estimate pStat3 by flow cytometry as PD readout Determination of Plasma Drug Concentration: […]

Data set [10] relates to B16F10 tumor cells. The data set is described as follows: B16F10 metastasis model. Format: in vivo, C57B16 mice. The settings on record: B16F10 model, 5 MPK. As to the method:
IV injection of 0.1×10^6 B16F10 tumor cells in the tail vain of 60 male C57B16 mice. Randomization of mice one day after tumor cell injection into 4 groups of 15 mice. Out of 15, 6 mice were sacrificed on 14th day for counting metastatic foci on lungs. Rest 9 mice were dosed continuously till morbidity/mortality for recording survival.
as §2
Plasma collected for drug concentration estimation and whole blood was collected to isolate PBMCs to determine pStat3 inhibition by flow cytometry as PD readout.

In data set [11] the test system is pStat3. The data set is described as follows: Quantification of pStat3 in PBMCs by flow cytometry. The data set is classed as in vivo, mice. The settings on record: B16F10 model, 5 MPK. As for the experimental part: Phosphorylation of Stat3 was stimulated by addition of hIL6 (10 ug/mL) for 30 min at 37° C. Blood was fixed with formaldehyde (final 2% v/v) for 10 min at 37° C.
Buffy coat (PBMCs) was separated by aspirating translucent layer using pipetteman and washed twice with PBS-1×
Pre chilled PBMC's were permeabilized by adding ice cold Methanol, while vortexing gently (final volume 90% MeOH v/v) and incubated for 30 min on ice.
Permeabilized PBMCs were washed with PBS once. PBMCs re-suspended to 2×10^6 cells in 200 μL of incubation buffer for 10 min at room temperature (RT). Primary Ab was added (1:100 dilution) and incubated 45 min at RT. Washed as before (twice) and re-suspended in fluorochrome conjugated secondary Ab (1:500 dilution) and incubated at RT in dark for 30 min. Washed and re-suspended in […] PBS.
Measured pStat3 using FACS caliber machine (BD). Unstained PBMCs was used for cytometry settings. […] Histograms (cell number V/s FL1-H) were plotted. Percentage of cells that are phosphorylated by IL6 stimulation (M2 population), and inhibition of phosphorylation by inhibitor (decrease in M2 population) are calculated on histogram by marking peaks, M1 and M2.

JAK1, sequence (P23458 whole entry): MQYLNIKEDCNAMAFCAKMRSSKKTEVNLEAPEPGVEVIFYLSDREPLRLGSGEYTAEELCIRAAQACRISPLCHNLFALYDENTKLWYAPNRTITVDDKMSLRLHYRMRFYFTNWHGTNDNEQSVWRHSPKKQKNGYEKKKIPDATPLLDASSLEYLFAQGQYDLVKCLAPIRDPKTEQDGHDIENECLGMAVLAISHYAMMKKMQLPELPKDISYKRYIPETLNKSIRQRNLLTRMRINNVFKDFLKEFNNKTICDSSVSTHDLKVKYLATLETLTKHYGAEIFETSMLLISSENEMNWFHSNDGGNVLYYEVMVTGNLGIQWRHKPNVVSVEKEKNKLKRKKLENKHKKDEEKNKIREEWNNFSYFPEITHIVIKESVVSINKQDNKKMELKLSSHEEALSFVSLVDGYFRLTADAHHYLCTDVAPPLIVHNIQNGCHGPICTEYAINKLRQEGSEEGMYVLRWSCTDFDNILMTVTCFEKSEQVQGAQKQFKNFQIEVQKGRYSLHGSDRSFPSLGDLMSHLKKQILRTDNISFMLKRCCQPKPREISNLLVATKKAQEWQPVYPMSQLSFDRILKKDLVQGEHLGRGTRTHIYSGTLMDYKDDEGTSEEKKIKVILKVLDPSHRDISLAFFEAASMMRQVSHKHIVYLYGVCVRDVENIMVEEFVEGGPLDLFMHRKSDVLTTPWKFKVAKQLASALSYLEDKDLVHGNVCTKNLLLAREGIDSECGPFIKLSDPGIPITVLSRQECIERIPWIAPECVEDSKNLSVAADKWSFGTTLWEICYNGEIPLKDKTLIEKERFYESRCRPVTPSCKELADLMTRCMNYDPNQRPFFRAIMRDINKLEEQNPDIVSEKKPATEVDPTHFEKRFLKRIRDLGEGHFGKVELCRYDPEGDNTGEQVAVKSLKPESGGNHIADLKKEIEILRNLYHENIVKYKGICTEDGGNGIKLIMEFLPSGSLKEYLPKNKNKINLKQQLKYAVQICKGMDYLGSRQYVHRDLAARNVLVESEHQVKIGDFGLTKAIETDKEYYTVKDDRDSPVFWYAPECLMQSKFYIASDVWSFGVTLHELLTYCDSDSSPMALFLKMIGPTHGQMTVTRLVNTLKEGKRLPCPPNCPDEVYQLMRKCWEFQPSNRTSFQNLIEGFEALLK
c-Src, sequence (P12931 whole entry, looked up): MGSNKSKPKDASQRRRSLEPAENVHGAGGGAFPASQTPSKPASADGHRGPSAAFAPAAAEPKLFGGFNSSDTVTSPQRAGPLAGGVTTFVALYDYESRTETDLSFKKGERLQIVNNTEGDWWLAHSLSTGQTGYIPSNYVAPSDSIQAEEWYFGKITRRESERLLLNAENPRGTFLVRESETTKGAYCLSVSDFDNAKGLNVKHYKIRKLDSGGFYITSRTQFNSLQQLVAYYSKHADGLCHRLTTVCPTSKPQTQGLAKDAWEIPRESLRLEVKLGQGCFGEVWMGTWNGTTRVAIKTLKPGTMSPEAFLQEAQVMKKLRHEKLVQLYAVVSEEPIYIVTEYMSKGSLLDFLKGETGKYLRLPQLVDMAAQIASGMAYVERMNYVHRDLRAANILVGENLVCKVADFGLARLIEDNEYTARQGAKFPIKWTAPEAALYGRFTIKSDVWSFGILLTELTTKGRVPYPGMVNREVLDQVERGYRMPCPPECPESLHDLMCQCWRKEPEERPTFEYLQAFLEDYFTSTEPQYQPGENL
JAK2, sequence (O60674 whole entry): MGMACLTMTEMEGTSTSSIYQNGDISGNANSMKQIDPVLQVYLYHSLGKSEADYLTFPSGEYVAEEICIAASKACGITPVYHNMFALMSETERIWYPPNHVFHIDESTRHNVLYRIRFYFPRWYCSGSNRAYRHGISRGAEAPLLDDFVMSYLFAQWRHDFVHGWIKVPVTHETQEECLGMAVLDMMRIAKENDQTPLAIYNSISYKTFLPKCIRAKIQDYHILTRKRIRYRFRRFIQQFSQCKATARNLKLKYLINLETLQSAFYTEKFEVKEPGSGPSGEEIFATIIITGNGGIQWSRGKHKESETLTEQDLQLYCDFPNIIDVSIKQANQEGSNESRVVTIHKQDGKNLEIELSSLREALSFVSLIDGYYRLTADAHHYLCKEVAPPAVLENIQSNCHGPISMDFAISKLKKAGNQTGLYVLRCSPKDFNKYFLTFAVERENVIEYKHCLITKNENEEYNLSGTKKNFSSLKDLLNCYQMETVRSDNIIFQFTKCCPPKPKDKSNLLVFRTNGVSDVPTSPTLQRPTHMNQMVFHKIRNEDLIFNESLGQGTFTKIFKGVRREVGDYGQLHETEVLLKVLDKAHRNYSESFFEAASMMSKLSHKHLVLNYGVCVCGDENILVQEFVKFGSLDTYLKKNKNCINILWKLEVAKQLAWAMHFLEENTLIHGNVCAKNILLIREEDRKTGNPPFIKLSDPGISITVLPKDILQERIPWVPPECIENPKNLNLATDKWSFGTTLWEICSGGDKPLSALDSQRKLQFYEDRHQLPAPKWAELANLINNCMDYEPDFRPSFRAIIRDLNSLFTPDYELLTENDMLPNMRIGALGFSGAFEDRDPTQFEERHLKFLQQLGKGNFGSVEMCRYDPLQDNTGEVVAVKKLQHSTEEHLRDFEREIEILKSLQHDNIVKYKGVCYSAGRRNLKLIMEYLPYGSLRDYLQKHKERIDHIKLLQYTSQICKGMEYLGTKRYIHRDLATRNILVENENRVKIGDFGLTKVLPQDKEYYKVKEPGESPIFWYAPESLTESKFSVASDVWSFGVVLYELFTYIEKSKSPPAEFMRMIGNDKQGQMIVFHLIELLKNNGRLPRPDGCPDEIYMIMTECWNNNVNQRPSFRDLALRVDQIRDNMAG

In the case of `Cc1ccc(NC(=O)c2cccc(C(F)(F)F)c2)cc1N1CCc2nc(Nc3ccc(C(=O)N4CCN(C)CC4)cc3)ncc2C1` [Compound 17, N-(4-Methyl-3-{2-[4-(4-methyl-piperazine-1-carbonyl)-phenylamino]-7,8-dihydro-5H-pyrido[4,3-d]pyrimidin-6-yl}-phenyl)-3-trifluoromethyl-benzamide], the EC50 in data set [1] worked out at 10 nM; in [3] it was 44 nM; in data set [8], 92 nM. The IC50 is 3 nM in data set [2], 150 nM in [5] and 2 nM in data set [7]. Further, the inhibition at 0.1 µM in data set [4] was found to be 85%. In addition, in [4], the inhibition at 1 µM was found to be 89%. The molecule also returned a Vd in data set [6] of 7.7 L/kg.
`Cc1ccc(NC(=O)CC(C)C(F)(F)F)cc1N1CCc2nc(Nc3ccc(OCCN4CCCC4)cc3)ncc2C1` (stereo not shown) [Compound 155, 4,4,4-Trifluoro-3-methyl-N-(4-methyl-3-{2-[4-(2-pyrrolidin-1-yl-ethoxy)-phenylamino]-7,8-dihydro-5H-pyrido[4,3-d]pyrimidin-6-yl}-phenyl)-butyramide]: the results for the IC50 in [2] and in data set [7] were 18 nM and 2 nM, respectively. Also, the midpoint of the response in data set [3], the EC50, lay at 1200 nM. The Vd in data set [6] was 11.8 L/kg.
For the molecule `CN1CCN(c2ccc(Nc3ncc4c(n3)CCN(c3cc(NC(=O)c5cccc(C(F)(F)F)c5)ccc3Cl)C4=O)cc2)CC1` [Compound 162, N-(4-Chloro-3-{2-[4-(4-methyl-piperazin-1-yl)-phenylamino]-5-oxo-7,8-dihydro-5H-pyrido[4,3-d]pyrimidin-6-yl}-phenyl)-3-trifluoromethyl-benzamide], the half-maximal effective concentration (EC50) came out at 1140 nM in data set [1], 1380 nM in data set [3] and 600 nM in data set [8]. The values for the IC50 in data set [2], in data set [5] and in [7] were 6 nM, 350 nM and 27 nM, respectively. Besides, the inhibition at 0.1 µM in data set [2] turned out to be 92%; in data set [7], 73%. The figures for the inhibition at 1 µM in data set [2] and in data set [7] were 97% and 81%, respectively. The same molecule had a Vd in data set [6] of 3.35 L/kg.
For `Cc1cc(Nc2ncc3c(n2)CCN(c2cc(NC(=O)c4cccc(C(F)(F)F)c4)ccc2Cl)C3=O)ccc1N1CCN(C)CC1` [Compound 171, N-(4-Chloro-3-{2-[3-methyl-4-(4-methyl-piperazin-1-yl)-phenylamino]-5-oxo-7,8-dihydro-5H-pyrido[4,3-d]pyrimidin-6-yl}-phenyl)-3-trifluoromethyl-benzamide], the results for the EC50 in data set [1] and in [3] were 2100 nM and 1300 nM, respectively. Besides, the IC50 was 19 nM in data set [2], 471 nM in data set [5] and 20 nM in data set [7]. In addition, the inhibition at 0.1 µM in [2] worked out at 92%; in data set [4] it was 61%; in data set [7] it was 74%. For the same molecule, the inhibition at 1 µM in data set [2] came out at 97%; in data set [4], 84%; in data set [7], 87%. In data set [6], the distribution volume (Vd) worked out at 0.794 L/kg. In addition, the “distribution volume (in words)” value in data set [6] is listed as “weak volume of distribution”.
For `COc1cc2ncnc(Nc3ccc(F)c(Cl)c3)c2cc1OCCCN1CCOCC1` [Gefitinib, reference compound], the “% TGI” value in data set [9] is 94.25%.
With `CC(=O)O[C@H]1C(=O)[C@@]2(C)[C@H]([C@H](OC(=O)c3ccccc3)[C@]3(O)C[C@H](OC(=O)[C@H](O)[C@@H](NC(=O)c4ccccc4)c4ccccc4)C(C)=C1C3(C)C)[C@]1(OC(C)=O)CO[C@@H]1C[C@@H]2O` [Taxol, paclitaxel, reference compound], the “Metastasis Inhibition” value in [10] worked out at 32%. Moreover, the “PBMCs % pStat3 inhibition” value in [11] is on record as 25%.
